# Experimental data: ChEMBL document CHEMBL4261540, “Approaches to selective fibroblast growth factor receptor 4 inhibition through targeting the ATP-pocket middle-hinge region” (Medchemcomm, 2017)
# Activity calls are given as the source filed them. No cut-off for these calls is given here.
# Assays:
# [1] = target: Fibroblast growth factor receptor 4 (Homo sapiens, UniProt P22455, C552A)
# [2] = target: T1, Fibroblast growth factor receptor 4 (Homo sapiens, UniProt P22455)
# [3] = target: Fibroblast growth factor receptor 4 (Homo sapiens, UniProt P22455, C477A)
# [4] = target: Fibroblast growth factor receptor 2 (Homo sapiens, UniProt P21802); assay type: ADME
# [5] = target: Fibroblast growth factor receptor 1 (Homo sapiens, UniProt P11362)
# [6] = target: Fibroblast growth factor receptor 3 (Homo sapiens, UniProt P22607)
# [7] = target: T2, MAP kinase-activated protein kinase 2 (Homo sapiens, UniProt P49137); assay: Inhibition of human MK2 at 10 uM by [gamma33P]ATP assay
# Target sequence in this assay (P49137 whole entry, looked up): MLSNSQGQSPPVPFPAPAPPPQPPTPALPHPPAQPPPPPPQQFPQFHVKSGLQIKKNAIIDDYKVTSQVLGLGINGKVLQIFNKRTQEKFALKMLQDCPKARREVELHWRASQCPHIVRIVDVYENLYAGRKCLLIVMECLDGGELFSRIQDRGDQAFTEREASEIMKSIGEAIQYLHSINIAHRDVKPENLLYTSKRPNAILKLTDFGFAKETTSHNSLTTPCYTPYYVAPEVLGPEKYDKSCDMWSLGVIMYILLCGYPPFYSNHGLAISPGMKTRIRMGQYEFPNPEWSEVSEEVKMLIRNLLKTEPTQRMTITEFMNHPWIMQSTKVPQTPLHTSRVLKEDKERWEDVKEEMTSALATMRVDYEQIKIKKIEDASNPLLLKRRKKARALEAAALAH
# [8] = target: T2, MAP kinase-activated protein kinase 2; assay: Inhibition of human MK2 by [gamma33P]ATP assay
# Target sequence in this assay (P49137 whole entry): as the sequence (P49137 whole entry, looked up) above
# [9] = target: T1, Fibroblast growth factor receptor 4; remark: listed apart in the source
# Sequence of Fibroblast growth factor receptor 1 (P11362 whole entry): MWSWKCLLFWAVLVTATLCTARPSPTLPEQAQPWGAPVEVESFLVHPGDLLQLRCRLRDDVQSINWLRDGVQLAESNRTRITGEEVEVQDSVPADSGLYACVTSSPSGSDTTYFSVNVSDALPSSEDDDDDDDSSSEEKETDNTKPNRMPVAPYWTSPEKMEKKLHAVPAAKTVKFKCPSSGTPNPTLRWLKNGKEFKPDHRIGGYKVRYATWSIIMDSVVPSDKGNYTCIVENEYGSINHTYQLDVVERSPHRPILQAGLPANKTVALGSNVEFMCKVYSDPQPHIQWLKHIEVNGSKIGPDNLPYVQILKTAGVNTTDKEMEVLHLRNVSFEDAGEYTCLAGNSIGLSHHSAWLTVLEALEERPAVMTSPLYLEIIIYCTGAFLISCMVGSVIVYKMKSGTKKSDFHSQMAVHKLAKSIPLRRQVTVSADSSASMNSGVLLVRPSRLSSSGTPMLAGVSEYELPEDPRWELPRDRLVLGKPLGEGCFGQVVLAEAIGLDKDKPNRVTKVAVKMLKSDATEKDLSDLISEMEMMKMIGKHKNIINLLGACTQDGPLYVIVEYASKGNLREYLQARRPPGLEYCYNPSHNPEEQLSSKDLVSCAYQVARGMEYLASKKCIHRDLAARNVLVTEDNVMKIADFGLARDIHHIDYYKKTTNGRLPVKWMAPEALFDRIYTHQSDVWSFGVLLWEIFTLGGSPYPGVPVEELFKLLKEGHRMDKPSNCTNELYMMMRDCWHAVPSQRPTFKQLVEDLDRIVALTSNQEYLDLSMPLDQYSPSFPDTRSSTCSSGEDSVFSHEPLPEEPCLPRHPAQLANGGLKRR
# T1 sequence (P22455 whole entry): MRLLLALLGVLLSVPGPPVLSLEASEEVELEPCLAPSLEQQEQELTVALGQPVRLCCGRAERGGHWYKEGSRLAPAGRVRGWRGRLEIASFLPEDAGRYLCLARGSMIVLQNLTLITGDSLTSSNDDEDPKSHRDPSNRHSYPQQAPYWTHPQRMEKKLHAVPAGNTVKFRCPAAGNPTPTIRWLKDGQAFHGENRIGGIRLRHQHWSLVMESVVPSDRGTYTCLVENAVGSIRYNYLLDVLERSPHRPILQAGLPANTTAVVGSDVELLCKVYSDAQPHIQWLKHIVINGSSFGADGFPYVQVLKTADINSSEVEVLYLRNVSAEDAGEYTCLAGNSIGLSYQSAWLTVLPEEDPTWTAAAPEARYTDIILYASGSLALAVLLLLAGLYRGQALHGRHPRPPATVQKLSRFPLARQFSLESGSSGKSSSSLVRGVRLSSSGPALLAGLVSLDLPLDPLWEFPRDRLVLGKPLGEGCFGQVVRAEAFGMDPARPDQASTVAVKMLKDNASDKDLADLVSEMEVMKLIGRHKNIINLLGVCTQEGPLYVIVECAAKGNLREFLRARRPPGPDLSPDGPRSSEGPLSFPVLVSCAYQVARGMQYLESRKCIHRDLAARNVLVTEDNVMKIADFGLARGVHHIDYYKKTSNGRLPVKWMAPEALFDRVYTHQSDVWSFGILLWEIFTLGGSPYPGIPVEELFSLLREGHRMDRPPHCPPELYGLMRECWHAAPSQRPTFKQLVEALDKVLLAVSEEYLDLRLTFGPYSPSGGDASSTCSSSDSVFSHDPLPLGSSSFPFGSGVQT
# Sequence of Fibroblast growth factor receptor 3 (P22607 whole entry): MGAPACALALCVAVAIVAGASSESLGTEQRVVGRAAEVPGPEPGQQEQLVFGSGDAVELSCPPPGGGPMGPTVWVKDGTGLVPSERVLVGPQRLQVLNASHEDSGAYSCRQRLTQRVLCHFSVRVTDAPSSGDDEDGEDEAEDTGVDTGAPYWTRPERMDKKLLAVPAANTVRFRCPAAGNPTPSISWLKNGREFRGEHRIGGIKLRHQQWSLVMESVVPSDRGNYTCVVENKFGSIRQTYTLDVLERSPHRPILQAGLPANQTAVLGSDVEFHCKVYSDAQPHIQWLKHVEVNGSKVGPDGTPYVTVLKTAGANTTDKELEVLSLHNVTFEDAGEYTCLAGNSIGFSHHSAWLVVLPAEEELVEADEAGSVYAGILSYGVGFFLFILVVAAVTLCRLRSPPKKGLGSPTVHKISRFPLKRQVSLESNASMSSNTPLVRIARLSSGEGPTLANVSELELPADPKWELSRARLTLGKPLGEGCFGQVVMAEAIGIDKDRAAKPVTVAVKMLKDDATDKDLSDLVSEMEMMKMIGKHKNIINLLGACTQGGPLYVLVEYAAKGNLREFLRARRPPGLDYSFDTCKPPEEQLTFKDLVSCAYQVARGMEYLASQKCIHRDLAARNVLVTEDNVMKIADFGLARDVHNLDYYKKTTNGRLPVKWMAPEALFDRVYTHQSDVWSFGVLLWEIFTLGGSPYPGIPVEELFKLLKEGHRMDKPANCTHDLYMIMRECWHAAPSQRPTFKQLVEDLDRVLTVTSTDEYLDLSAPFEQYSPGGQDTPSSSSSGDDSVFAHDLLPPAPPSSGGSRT
# Sequence of Fibroblast growth factor receptor 2 (P21802 whole entry): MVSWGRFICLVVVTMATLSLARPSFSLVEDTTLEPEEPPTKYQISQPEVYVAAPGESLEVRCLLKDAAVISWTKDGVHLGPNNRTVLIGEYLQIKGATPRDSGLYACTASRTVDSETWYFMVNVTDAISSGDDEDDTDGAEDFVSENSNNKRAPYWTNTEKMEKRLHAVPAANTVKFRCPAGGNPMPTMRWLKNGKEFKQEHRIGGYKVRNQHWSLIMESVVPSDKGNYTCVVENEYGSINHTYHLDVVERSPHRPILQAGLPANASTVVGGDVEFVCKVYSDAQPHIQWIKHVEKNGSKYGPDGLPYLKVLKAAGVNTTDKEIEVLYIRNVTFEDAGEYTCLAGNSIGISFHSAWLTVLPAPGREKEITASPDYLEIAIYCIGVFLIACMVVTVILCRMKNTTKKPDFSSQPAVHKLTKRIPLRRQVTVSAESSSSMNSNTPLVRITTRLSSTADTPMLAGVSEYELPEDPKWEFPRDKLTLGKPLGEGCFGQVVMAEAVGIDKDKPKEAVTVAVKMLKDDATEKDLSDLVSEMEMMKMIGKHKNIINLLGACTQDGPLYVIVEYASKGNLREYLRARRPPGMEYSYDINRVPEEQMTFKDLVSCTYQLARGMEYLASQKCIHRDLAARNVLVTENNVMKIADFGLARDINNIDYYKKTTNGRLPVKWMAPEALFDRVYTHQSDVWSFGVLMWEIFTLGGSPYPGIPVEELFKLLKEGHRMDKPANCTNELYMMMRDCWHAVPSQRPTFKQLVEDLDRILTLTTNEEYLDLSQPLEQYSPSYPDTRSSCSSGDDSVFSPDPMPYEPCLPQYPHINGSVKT
# Sequence of Fibroblast growth factor receptor 4 (Homo sapiens, UniProt P22455, C552A) (P22455 22-802 C552A limits assumed): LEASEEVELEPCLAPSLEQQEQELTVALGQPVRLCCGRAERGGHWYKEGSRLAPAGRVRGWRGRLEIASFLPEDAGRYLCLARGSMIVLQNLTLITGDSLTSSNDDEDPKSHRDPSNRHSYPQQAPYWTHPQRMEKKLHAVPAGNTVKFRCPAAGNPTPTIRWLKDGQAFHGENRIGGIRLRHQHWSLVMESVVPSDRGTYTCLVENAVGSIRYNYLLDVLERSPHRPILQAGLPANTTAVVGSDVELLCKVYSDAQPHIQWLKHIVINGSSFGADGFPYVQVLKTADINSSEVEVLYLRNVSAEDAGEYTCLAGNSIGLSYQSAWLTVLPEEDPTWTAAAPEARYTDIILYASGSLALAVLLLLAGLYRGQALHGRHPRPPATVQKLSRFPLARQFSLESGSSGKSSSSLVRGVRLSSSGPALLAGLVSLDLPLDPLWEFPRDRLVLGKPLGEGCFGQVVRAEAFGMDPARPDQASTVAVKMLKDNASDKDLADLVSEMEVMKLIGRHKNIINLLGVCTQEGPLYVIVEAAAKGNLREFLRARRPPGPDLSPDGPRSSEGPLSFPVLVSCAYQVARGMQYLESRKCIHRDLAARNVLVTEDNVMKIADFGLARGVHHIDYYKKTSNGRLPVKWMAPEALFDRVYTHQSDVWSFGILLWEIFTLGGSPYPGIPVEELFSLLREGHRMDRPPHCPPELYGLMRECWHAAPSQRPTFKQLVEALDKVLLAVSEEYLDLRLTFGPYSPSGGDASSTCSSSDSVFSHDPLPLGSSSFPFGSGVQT
# Sequence of Fibroblast growth factor receptor 4 (Homo sapiens, UniProt P22455, C477A) (P22455 22-802 C477A limits assumed): as the sequence (P22455 22-802 C552A limits assumed) above, with C456A, A531C counted along it
Structure (SMILES),IC50 [1] [µM],IC50 [2] [µM],IC50 [3] [µM],IC50 [4] [µM],IC50 [5] [µM],IC50 [6] [µM],inhibition [7],IC50 [8] [µM],IC50 [9] [µM]
O=C(Nc1ccc(C(F)(F)F)cn1)c1cccc2cccnc12,> 10,> 10,> 10,,,,,,
O=Cc1ccc2cccc(C(=O)Nc3ccc(C(F)(F)F)cc3)c2n1,> 10,> 10,> 10,,,,,,
O=[N+]([O-])c1ccc(Cl)nc1Nc1ncc(C(F)(F)F)cc1Cl,,,,> 10,> 10,> 10,,,
O=Cc1ccc2cccc(C(=O)Nc3ccc(C(F)(F)F)cn3)c2n1,,,,> 10,> 10,> 10,Active,2.3,
CC(C)COc1cc(N2CCC(N(C)C)CC2)ccc1Nc1ncc(C#N)c(N[C@H]2[C@@H](C(N)=O)[C@@H]3C=C[C@H]2C3)n1,,,,0.363,,3.5,,,
CC(C)Oc1cc(N2CCC(N3CCN(C)CC3)CC2)ccc1Nc1ncc(Cl)c(Nc2ccccc2S(=O)(=O)C(C)C)n1,,,,4.43,6.35,8,,,0.029
C=CC(=O)Nc1cccc(C)c1Nc1ncc2cc(-c3c(Cl)c(OC)cc(OC)c3Cl)ccc2n1,,,,1.7,3.2,0.78,,,
